From patent US20260224462A1, “ANTI-AGING COMPOSITION” (MITSUBISHI CORPORATION LIFE SCIENCES LIMITED, priority 2023, published 2026)

How the values were obtained:
Type in all cases: cell-based
B16 mouse melanoma cells = test: Melanin production suppression test in cultured cells; conditions: FIG. 5; for melanin production amount compared with the reference sample (absorbance at 405 nm): 0.02 mM or 0.05 mM at melanin induction with α-MSH 200 nM, p<0.01; for concentration needed for melanin production suppressing effect compared with kojic acid (1 mM) and reduced glutathione (3 mM): 0.02 mM or 0.05 mM of sample
Protocol: B16 mouse melanoma cells were seeded in a 6 well plate (2.0×10^4 cells/well), and cultured for 24 hours in D-MEM medium to which 5% fetal bovine serum was added with respect to the medium (5% CO2, 37° C.). […] The obtained pellets were washed twice with PBS (−), 150 μL of a 1 M sodium hydroxide solution was then added, and the mixture was treated at 100° C. for 10 minutes to dissolve the pellets, thereby preparing a reference sample. […] One hundred μL of a sample of each test section was added to a 96 well plate, and the absorbance at 405 nm was measured with a microplate reader (n=3). […] The significant difference test was performed on the measured value of the reference sample by the Dunnett method (*p<0.05, **p<0.01.).

[1] = test system: Normal human epidermal keratinocytes; test: Suppression of decrease in hyaluronic acid production capability due to aging induction, keratinocytes (ELISA); conditions: 50 μM, 0.5 mM hydrogen peroxide
Protocol: Normal human epidermal keratinocytes were seeded in 24 well plates (1.0×10^5 cells/well, N=3) and precultured for 24 hours (5% CO2, 37° C.). As a medium, a commercially available keratinocyte growth medium (PromoCell) was used. Thereafter, the wells were washed once with PBS (−), then replaced with a keratinocyte growth medium dissolved so that the final concentration of Sample 1 was 50 μM, and further incubated for 30 minutes. Thereafter, normal human epidermal keratinocytes were treated with a medium adjusted to have a final concentration of hydrogen peroxide of 0.5 mM to induce aging. Thereafter, the medium was replaced with a new keratinocyte growth medium and incubated for 24 hours, and then the amount of hyaluronic acid was quantified by an ELISA method using a hyaluronic acid quantification kit (Cosmo Bio). For comparison, a test section not treated with oxidized glutathione trisulfide was provided.
The hyaluronic acid production amount in each of the test sections was shown as a relative value when the hyaluronic acid production amount in the test section in which neither oxidized glutathione trisulfide treatment nor aging induction was performed was taken as 100. […]

[2] = test system: Normal human epidermal keratinocytes; test: Suppression of decrease in proliferation capability of aging-induced normal human epidermal keratinocytes (MTT assay); conditions: 50 μM or 100 μM, aging induced with 0.5 mM hydrogen peroxide; compared with only aging induction; FIG. 2
Protocol: Normal human epidermal keratinocytes were seeded in 96 well plates (1.0×10^4 cells/well, N=3) and precultured for 24 hours (5% CO2, 37° C.). As a medium, a commercially available keratinocyte growth medium (PromoCell) was used. Thereafter, the wells were washed once with PBS (−), then replaced with a keratinocyte growth medium dissolved so that the final concentration of Sample 1 was 50 μM or 100 μM, and further incubated for 30 minutes. […] Thereafter, an MTT assay was performed according to a conventional method, and the survival rate of normal human epidermal keratinocytes was calculated as a relative value when the survival rate of cells in a test section in which neither the treatment with oxidized glutathione trisulfide nor the aging induction was performed was taken as 100. For comparison, a test section in which only aging induction was performed without treatment with oxidized glutathione trisulfide was set. Regarding the survival rate, a significant difference test (t-test, two-tailed) between the two groups of the test section of Sample 1 and the test section in which only aging induction was performed was performed respectively.

Normal human fibroblasts [3] = test: Suppression of decrease in proliferation capability of aging-induced normal human fibroblasts (MTT assay); conditions: 50 μM or 100 μM, aging induced with 0.5 mM hydrogen peroxide; compared with only aging induction and with 100 μM reduced glutathione; p<0.005; FIG. 1
Protocol: Normal human fibroblasts were seeded in 96 well plates (3.0×10^3 cells/well, N=3) and precultured for 24 hours (5% CO2, 37° C.). As a medium, MEM-α, nucleosides medium (Gibco) containing fetal bovine serum (10% of serum-free medium was externally added) was used. Thereafter, the wells were washed once with PBS (−), then replaced with MEM-α, nucleoside medium containing fetal bovine serum (5% of serum-free medium was externally added) dissolved so that the final concentration of Sample 1 or Sample 2 was 50 μM or 100 μM, and further incubated for 30 minutes. Thereafter, fibroblasts were treated with a medium adjusted so that the final concentration of hydrogen peroxide was 0.5 mM to induce aging. Thereafter, an MTT assay was performed according to a conventional method, and the survival rate of fibroblasts was calculated as a relative value when the survival rate of cells in the test section in which neither treatment nor aging induction was performed was taken as 100.
For comparison, a test section in which only aging induction was performed and a test section in which reduced glutathione was 100 μM was set instead of Sample 1. […]

[4] = molecular target: T1, tyrosinase derived from B16 mouse melanoma cells (Mus musculus, UniProt P11344); test: Tyrosinase activity suppression test; conditions: 0.05 mM or 0.1 mM at melanin induction; L-DOPA, absorbance at 490 nm corrected by protein concentration; FIG. 6
T1 construct: a protein extract containing tyrosinase derived from B16 mouse melanoma cells; endogenous in cells; host or cells: B16 mouse melanoma cells, alpha-MSH induced
T1 sequence (P11344 19-533): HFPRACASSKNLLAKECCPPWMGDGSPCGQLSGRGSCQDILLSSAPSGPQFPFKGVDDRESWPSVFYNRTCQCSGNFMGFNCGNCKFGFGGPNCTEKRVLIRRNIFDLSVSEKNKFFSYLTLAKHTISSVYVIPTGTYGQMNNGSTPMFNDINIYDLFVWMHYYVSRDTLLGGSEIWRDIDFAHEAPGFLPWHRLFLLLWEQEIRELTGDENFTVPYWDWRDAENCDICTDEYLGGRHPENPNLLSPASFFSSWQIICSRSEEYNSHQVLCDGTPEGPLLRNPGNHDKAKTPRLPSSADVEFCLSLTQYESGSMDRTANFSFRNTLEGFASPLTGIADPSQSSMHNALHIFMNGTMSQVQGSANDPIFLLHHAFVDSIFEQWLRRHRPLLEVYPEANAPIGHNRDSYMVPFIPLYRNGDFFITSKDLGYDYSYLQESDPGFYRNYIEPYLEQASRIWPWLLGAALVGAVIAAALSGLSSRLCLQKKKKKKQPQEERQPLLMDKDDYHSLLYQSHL
Protocol: The tyrosinase activity inhibitory effect can be known by comparing the value of the absorbance at 490 nm corrected by the protein concentration measured by adding the test substance at the time of melanin induction and the same operation with the value of the test section to which the test substance is not added.
B16 mouse melanoma cells were seeded in a 6 well plate (2.0×10^4 cells/well), and cultured for 24 hours in D-MEM medium to which 5% fetal bovine serum was added with respect to the medium (5% CO2, 37° C.). Thereafter, α-MSH (final concentration: 200 nM) was added, and the cells were cultured in a serum-free D-MEM medium for 24 hours to induce melanin. […] The protein concentration of the obtained sample was measured by the BCA method.
The same operation was performed except that melanin induction was not performed, and a reference sample was obtained. […] Fifty μL of a sample of each test section was placed in a 96 well plate (n=3), 50 μL of 0.8 mg/mL L-DOPA was added, the mixture was reacted at 37° C. for 1 hour, and then the absorbance at 490 nm was measured with a microplate reader. The absorbance was corrected by the protein concentration, and the relative value of each test section was calculated when the measured value of the reference sample was 100. […]

Normal human fibroblasts [5] = test: Suppression of decrease in hyaluronic acid production capability due to aging induction, fibroblasts (ELISA); conditions: 50 μM or 100 μM, 0.5 mM hydrogen peroxide; for amount of hyaluronic acid compared with test section of only aging induction: 24 h, ELISA, p<0.05, FIG. 3; for hyaluronic acid production capability compared with test sections that did not induce aging: no significant difference between the two groups, FIG. 3
Protocol: Normal human fibroblasts were seeded in 24 well plates (8.0×10^4 cells/well, N=3) and precultured for 24 hours (5% CO2, 37° C.). As a medium, MEM-α, nucleosides medium (Gibco) containing fetal bovine serum (10% of serum-free medium was externally added) was used. Thereafter, the wells were washed once with PBS (−), then replaced with MEM-α, nucleoside medium containing fetal bovine serum (5% of serum-free medium was externally added) dissolved so that the final concentration of Sample 1 or Sample 2 was 50 μM or 100 μM, and further incubated for 30 minutes. Thereafter, fibroblasts were treated with a medium adjusted so that the final concentration of hydrogen peroxide was 0.5 mM to induce aging. Thereafter, the culture medium was changed to MEM-α, nucleoside medium containing fetal bovine serum (5% of serum-free culture medium was externally added) and incubated for 24 hours, and then the amount of hyaluronic acid was quantified by ELISA using a hyaluronic acid quantification kit (Cosmo Bio Inc.).
The hyaluronic acid production amount in each test section was shown as a relative value when the hyaluronic acid production amount in each sample and the test section in which aging induction was not performed was taken as 100. Regarding the hyaluronic acid production amount, a significant difference test (t-test, two-tailed) between the two groups of the test section for Sample 1 and the test section for which only the aging induction was performed respectively, and a significant difference test between the test section for Sample 2 and the test section for which only the aging induction was performed were each performed, and “*(p<0.05)” was marked for those in which a significant difference was recognized.

SMILES: N[C@@H](CCC(=O)N[C@@H](CSSSC[C@H](NC(=O)CC[C@H](N)C(=O)O)C(=O)NCC(=O)O)C(=O)NCC(=O)O)C(=O)O [Sample 1, oxidized glutathione trisulfide]
- melanin production amount compared with the reference sample (absorbance at 405 nm) (B16 mouse melanoma cells): significantly low
- concentration needed for melanin production suppressing effect compared with kojic acid (1 mM) and reduced glutathione (3 mM) (B16 mouse melanoma cells; α-MSH 200 nM): exhibited a melanin production suppressing effect at a lower concentration
- amount of hyaluronic acid compared with test section of only aging induction ([1]; 24 h, ELISA, p<0.05, FIG. 4): significantly higher
- hyaluronic acid production capability compared with control group in which aging is not induced ([1]; no significant difference between the two groups, FIG. 4): same hyaluronic acid production capability
- cell proliferation rate (survival rate of keratinocytes, MTT, relative value) [2]: significant cell proliferation rate
- cell proliferation rate (survival rate of fibroblasts, MTT, relative value) (Normal human fibroblasts [3]): significant cell proliferation rate
- tyrosinase activity compared with test section in which only melanin induction was performed [4]: significantly lower
- tyrosinase activity compared with the reference sample (no melanin induction) [4]: same degree of tyrosinase activity as the reference sample
- amount of hyaluronic acid compared with test section of only aging induction (Normal human fibroblasts [5]): significantly higher
- hyaluronic acid production capability compared with test sections that did not induce aging (Normal human fibroblasts [5]): same hyaluronic acid production capability

SMILES: CC(=O)N[C@@H](CSSSC[C@H](NC(C)=O)C(=O)O)C(=O)O [Sample 2, oxidized NAC trisulfide]
- melanin production amount compared with the reference sample (absorbance at 405 nm) (B16 mouse melanoma cells): significantly low
- concentration needed for melanin production suppressing effect compared with kojic acid (1 mM) and reduced glutathione (3 mM) (B16 mouse melanoma cells; α-MSH 200 nM): melanin production can be suppressed at a lower concentration
- cell proliferation rate (survival rate of fibroblasts, MTT, relative value) (Normal human fibroblasts [3]): significant cell proliferation rate
- amount of hyaluronic acid compared with test section of only aging induction (Normal human fibroblasts [5]): significantly higher
- hyaluronic acid production capability compared with test sections that did not induce aging (Normal human fibroblasts [5]): The same result was obtained

SMILES: N[C@@H](CCC(=O)N[C@@H](CS)C(=O)NCC(=O)O)C(=O)O [reduced glutathione, reference compound]
- melanin production suppressing effect compared with 0.02 mM test section of Sample 1 (B16 mouse melanoma cells; reduced glutathione final concentration 3 mM, α-MSH 200 nM): same melanin production suppressing effect
